We go through two compounds from patent US20080269310A1, “Synergistic Combinations” (priority 2005, published 2008).

Where two headings read alike, the source gives them in different places.

The subject of assay [1] is carrageenan-induced thermal hyperalgesia. Nature of the assay: rat carrageenan footpad thermal hyperalgesia assay (Hargreaves test). Format: in vivo. As to conditions: gabapentin 10-100 mg/kg SC, carprofen 1-10 mg/kg SC, combination in fixed 10:1 ratio. As to the method: The aim of this experiment was to characterize the anti-nociceptive and anti-inflammatory effects of gabapentin administered in combination with carprofen in the rat. In this example, gabapentin, carprofen, and the combination of gabapentin and carprofen were evaluated in a standard rat carrageenan footpad thermal hyperalgesia assay. This assay utilizes an extract of seaweed (carrageenan) that, when injected into the footpad of test animals, causes a sterile inflammation, thereby lowering the pain threshold. […]
Each data point represents the mean and standard error of mean. […] The theoretical dose-additive line for a 10:1 dose ratio was determined (dotted line) as described (Tallarida, 1992). The experimental determination of a 10:1 dose ratio was determined (gabapentin-carprofen mixture 10:1) and a shift to the left of the theoretical dose-additive line was found. […]
Dose-effect curves were first determined for (1) gabapentin by itself and (2) carprofen by itself. The ED50 value of each agent was determined, as was the time to peak effect. […]
Carrageenan-induced thermal hyperalgesia: Rats were acclimated to a testing chamber whose glass floor was maintained at 25° C. One hour later, a high intensity beam of light was focused through the glass on the ventral surface of each hind paw, and the latency to reflex withdrawal of the paw from the light beam was measured to the nearest 0.1 second. […]

Assay [2] has as its system COX-2 isozyme compared to the COX-1 isozyme. As to conditions: dogs, cited from earlier work.
Assay [3] has the same test system. As to conditions: horses; American Journal of Veterinary Research, 2001, 62, 11, 1755; cited from earlier work.
Assay [4] has the same test system. As to conditions: cats; American Journal of Veterinary Research, 2001, 62, 11, 1755; cited from earlier work.

`CC(C(=O)O)c1ccc2c(c1)[nH]c1ccc(Cl)cc12` (stereo not drawn) [carprofen, 6-chloro-α-methyl-9H-carbazole-2-acetic acid]: the “antihyperalgesic action (in words)” value in assay [1] is reported as “antihyperalgesic actions”. For the same compound, the “selectivity for the COX-2 isozyme compared to the COX-1 isozyme” value in assay [2] (American Journal Veterinary Research, 2000, 61, 7, 802) was 1.75 fold; in assay [2] (American Journal Veterinary Research, 2002, 63, 1, 91) it was 16.8 fold; in assay [2] (American Journal of Veterinary Research, 2001, 62, 11, 1755), 6.5 fold; in assay [2] (WO 98/50033), 129 fold; in assay [3], 1.6 fold; in assay [4] it was 5.5 fold.

As for `NCC1(CC(=O)O)CCCCC1` [gabapentin, 1-(aminomethyl)-cyclohexylacetic acid], the “antihyperalgesic action (in words)” value in assay [1] is recorded as “antihyperalgesic actions”.
